Several values for one entry are separate records, joined by “and”; a condition that tells them apart may be missing. Identical values can stand only once.
Assays:
[1] = HPLC analysis of stability of the isolated radiometal complex; format: physicochemical; details: room temperature
Method: The major radioactive HPLC peak, eluting with a retention time of 14.1 minutes, was collected. […] HPLC conditions: Solvent A=56 mM NH4OAc in water; Solvent B═CH3CN. Flow rate=1 mL/min on 4.6×250 mm C18 reverse-phase column. Linear gradient conditions: 5% B at zero minutes, ramping to 25% B at 25 minutes, then ramping to 60% B at 27 minutes and 100% B at 30 minutes.
HPLC-purified ^64Cu-CY4-036 was removed from the HPLC solvents by solid-phase extraction. A C18 Sep-Pak Light solid phase extraction cartridge (Millipore, Inc.) was conditioned by washing with ethanol followed by water. The HPLC-purified ^64Cu-CY4-036 was loaded onto the C18 Sep-Pak after dilution with water to 5% acetonitrile, the Sep-Pak was washed with 20 mL water, and the ^64Cu-CY4-036 product recovered by fractional elution with ethanol. The resulting ethanol solution of ^64Cu-CY4-036 was evaporated to dryness under a stream of N2 at room temperature, and the ^64Cu-CY4-036 was reconstituted in water. Analytical HPLC confirmed the radiochemical purity, and stability, of the isolated ^64Cu-CY4-036 product. HPLC conditions: Solvent A=53 mM NH4OAc in water; Solvent B═CH3CN. Flow rate=1 mL/min on 4.6×250 mm C18 reverse-phase analytical column. Linear gradient conditions: 5% B at zero minutes, ramping to 25% B at 25 minutes, then ramping to 60% B at 27 minutes and 100% B at 30 minutes.

[2] = system: folate-receptor-positive human KB cell tumor xenografts; assay: Biodistribution of 111In radiotracer in KB tumor-bearing athymic mice after intravenous administration; format: in vivo; details: for Percentage of Injected 111In Dose Per Organ (Tissue): Muscle: muscle assumed 42% of body mass
Method: Our primary animal model for evaluation of the biodistribution and pharmacokinetics of folate-receptor-targeted radiopharmaceuticals has been athymic mice bearing subcutaneously implanted folate-receptor-positive human KB cell tumors. […] After 3 weeks on folate-free diet, mouse serum folate levels drop to 25±7 nM from the initial 720±260 nM serum folate level when the animals are fed normal rodent chow. This dietary intervention is believed to be a reasonable manipulation of the animal model, since the mice would have serum folate levels only slightly higher than the folate concentration of normal human serum. Thus, in these mouse biodistribution studies the radiotracer is competing for tumor folate receptors with physiologically relevant concentrations of endogenous unlabeled serum folate.
The substantial retention of ^111In in the kidneys is fully consistent with the binding of ^111In-CYK4-013 to tissue folate receptors, since the renal proximal tubule is a known normal tissue site of folate receptor expression. […] The behavior of the ^111In-CYK4-013 radiopharmaceutical in this animal model (Table 2) is very similar to that observed for ^111In-DTPA-Folate (Table 3).
Results. Similar to ^111In-DTPA-Folate, ^111In-CYK4-013 selectively localized in the folate-receptor-positive tumor xenografts, and afforded prolonged tumor retention of ^111In (5.4±0.8; 5.5±1.1; and 3.6±0.6% ID/g at 1 hour, 4 hours, and 24 hours, respectively) (Table 2). […] Blockable binding was also observed in the kidneys, where the folate receptor occurs in the proximal tubules.

[3] = 1 Hour after intravenous administration
[4] = 4 Hours after intravenous administration
[5] = 4 Hours, Blocked: co-injection of folic acid dihydrate 4.1 ± 0.4 mg/kg
[6] = 24 Hours after intravenous administration

SMILES: Nc1nc(O)c2nc(CNc3ccc(C(=O)NCCOCCOCCNC(=O)CN(CCN(CCN(CC(=O)O)CC(=O)O)CC(=O)O)CC(=O)O)cc3)cnc2n1.[111In+3] [^111In-CYK4-013]
- time the isolated HPLC peak remains stable [1]: at least 7 days
- Percentage of Injected 111In Dose Per Gram (Tissue Wet Mass): Blood [2, 3]: 0.18 ± 0.01 % ID/g
- Percentage of Injected 111In Dose Per Gram (Tissue Wet Mass): Heart [2, 3]: 3.5 ± 0.4 % ID/g
- Percentage of Injected 111In Dose Per Gram (Tissue Wet Mass): Kidney (one) [2, 3]: 61 ± 5 % ID/g
- Percentage of Injected 111In Dose Per Gram (Tissue Wet Mass): Liver & Gall Bladder [2, 3]: 4.3 ± 0.7 % ID/g
- Percentage of Injected 111In Dose Per Gram (Tissue Wet Mass): Lungs [2, 3]: 1.5 ± 0.2 % ID/g
- Percentage of Injected 111In Dose Per Gram (Tissue Wet Mass): Muscle [2, 3]: 3.5 ± 0.5 % ID/g
- Percentage of Injected 111In Dose Per Gram (Tissue Wet Mass): Spleen [2, 3]: 0.31 ± 0.09 % ID/g
- Percentage of Injected 111In Dose Per Gram (Tissue Wet Mass): Stomach, Intestines & Contents [2, 3]: 1.7 ± 0.2 % ID/g
- Percentage of Injected 111In Dose Per Gram (Tissue Wet Mass): Tumor [2, 3]: 5.4±0.8 % ID/g
- Percentage of Injected 111In Dose Per Organ (Tissue): Blood [2, 3]: 0.29 ± 0.003 Percentage of Injected 111In D
- Percentage of Injected 111In Dose Per Organ (Tissue): Heart [2, 3]: 0.51 ± 0.09 Percentage of Injected 111In D
- Percentage of Injected 111In Dose Per Organ (Tissue): Kidney (one) [2, 3]: 15.3 ± 1.2 Percentage of Injected 111In D
- Percentage of Injected 111In Dose Per Organ (Tissue): Liver & Gall Bladder [2, 3]: 6.8 ± 1.3 Percentage of Injected 111In D
- Percentage of Injected 111In Dose Per Organ (Tissue): Lungs [2, 3]: 0.69 ± 0.06 Percentage of Injected 111In D
- Percentage of Injected 111In Dose Per Organ (Tissue): Spleen [2, 3]: 0.063 ± 0.016 Percentage of Injected 111In D
- Percentage of Injected 111In Dose Per Organ (Tissue): Stomach, Intestines & Contents [2, 3]: 5.8 ± 0.5 Percentage of Injected 111In D
- Percentage of Injected 111In Dose Per Organ (Tissue): Tumor [2, 3]: 0.78 ± 0.47 Percentage of Injected 111In D
- Tumor/blood ratio [2, 3]: 30 ± 5
- Tumor/kidney ratio [2, 3]: 0.088 ± 0.013
- Tumor/liver ratio [2, 3]: 1.3 ± 0.4
- Tumor/muscle ratio [2, 3]: 1.6 ± 0.4
- Percentage of Injected 111In Dose Per Organ (Tissue): Muscle [2, 3]: 43.6 ± 4.1 Percentage of Injected 111In D
- Percentage of Injected 111In Dose Per Gram (Tissue Wet Mass): Blood [2, 4]: 0.050 ± 0.009 % ID/g
- Percentage of Injected 111In Dose Per Gram (Tissue Wet Mass): Heart [2, 4]: 2.9 ± 0.9 % ID/g
- Percentage of Injected 111In Dose Per Gram (Tissue Wet Mass): Kidney (one) [2, 4]: 81 ± 7 % ID/g
- Percentage of Injected 111In Dose Per Gram (Tissue Wet Mass): Liver & Gall Bladder [2, 4]: 1.9 ± 0.6 % ID/g
- Percentage of Injected 111In Dose Per Gram (Tissue Wet Mass): Lungs [2, 4]: 1.4 ± 0.3 % ID/g
- Percentage of Injected 111In Dose Per Gram (Tissue Wet Mass): Muscle [2, 4]: 2.8 ± 0.8 % ID/g
- Percentage of Injected 111In Dose Per Gram (Tissue Wet Mass): Spleen [2, 4]: 0.29 ± 0.07 % ID/g
- Percentage of Injected 111In Dose Per Gram (Tissue Wet Mass): Stomach, Intestines & Contents [2, 4]: 1.5 ± 0.9 % ID/g
- Percentage of Injected 111In Dose Per Gram (Tissue Wet Mass): Tumor [2, 4]: 5.5±1.1 % ID/g and 5.6 ± 1.1 % ID/g
- Percentage of Injected 111In Dose Per Organ (Tissue): Blood [2, 4]: 0.078 ± 0.010 Percentage of Injected 111In D
- Percentage of Injected 111In Dose Per Organ (Tissue): Heart [2, 4]: 0.41 ± 0.08 Percentage of Injected 111In D
- Percentage of Injected 111In Dose Per Organ (Tissue): Kidney (one) [2, 4]: 20.2 ± 1.6 Percentage of Injected 111In D
- Percentage of Injected 111In Dose Per Organ (Tissue): Liver & Gall Bladder [2, 4]: 3.0 ± 1.0 Percentage of Injected 111In D
- Percentage of Injected 111In Dose Per Organ (Tissue): Lungs [2, 4]: 0.60 ± 0.01 Percentage of Injected 111In D
- Percentage of Injected 111In Dose Per Organ (Tissue): Spleen [2, 4]: 0.049 ± 0.012 Percentage of Injected 111In D
- Percentage of Injected 111In Dose Per Organ (Tissue): Stomach, Intestines & Contents [2, 4]: 5.4 ± 0.8 Percentage of Injected 111In D
- Percentage of Injected 111In Dose Per Organ (Tissue): Tumor [2, 4]: 0.46 ± 0.26 Percentage of Injected 111In D
- Tumor/blood ratio [2, 4]: 111 ± 11
- Tumor/kidney ratio [2, 4]: 0.069 ± 0.013
- Tumor/liver ratio [2, 4]: 3.0 ± 0.5
- Tumor/muscle ratio [2, 4]: 2.1 ± 0.2
- Percentage of Injected 111In Dose Per Organ (Tissue): Muscle [2, 4]: 33 ± 9 Percentage of Injected 111In D
- Percentage of Injected 111In Dose Per Gram (Tissue Wet Mass): Blood [2, 5]: 0.016 ± 0.010 % ID/g
- Percentage of Injected 111In Dose Per Gram (Tissue Wet Mass): Heart [2, 5]: 0.015 ± 0.010 % ID/g
- Percentage of Injected 111In Dose Per Gram (Tissue Wet Mass): Kidney (one) [2, 5]: 0.90 ± 0.59 % ID/g
- Percentage of Injected 111In Dose Per Gram (Tissue Wet Mass): Liver & Gall Bladder [2, 5]: 0.051 ± 0.029 % ID/g
- Percentage of Injected 111In Dose Per Gram (Tissue Wet Mass): Lungs [2, 5]: 0.041 ± 0.027 % ID/g
- Percentage of Injected 111In Dose Per Gram (Tissue Wet Mass): Muscle [2, 5]: 0.080 ± 0.057 % ID/g
- Percentage of Injected 111In Dose Per Gram (Tissue Wet Mass): Spleen [2, 5]: 0.028 ± 0.017 % ID/g
- Percentage of Injected 111In Dose Per Gram (Tissue Wet Mass): Stomach, Intestines & Contents [2, 5]: 1.7 ± 1.1 % ID/g
- Percentage of Injected 111In Dose Per Organ (Tissue): Blood [2, 5]: 0.025 ± 0.015 Percentage of Injected 111In D
- Percentage of Injected 111In Dose Per Organ (Tissue): Heart [2, 5]: 0.0023 ± 0.0016 Percentage of Injected 111In D
- Percentage of Injected 111In Dose Per Organ (Tissue): Kidney (one) [2, 5]: 0.23 ± 0.15 Percentage of Injected 111In D
- Percentage of Injected 111In Dose Per Organ (Tissue): Liver & Gall Bladder [2, 5]: 0.074 ± 0.044 Percentage of Injected 111In D
- Percentage of Injected 111In Dose Per Organ (Tissue): Lungs [2, 5]: 0.0082 ± 0.0051 Percentage of Injected 111In D
- Percentage of Injected 111In Dose Per Organ (Tissue): Spleen [2, 5]: 0.0049 ± 0.0029 Percentage of Injected 111In D
- Percentage of Injected 111In Dose Per Organ (Tissue): Stomach, Intestines & Contents [2, 5]: 4.6 ± 2.8 Percentage of Injected 111In D
- Percentage of Injected 111In Dose Per Organ (Tissue): Tumor [2, 5]: 0.0094 ± 0.0061 Percentage of Injected 111In D
- Tumor/blood ratio [2, 5]: 7.5 ± 2.4
- Tumor/kidney ratio [2, 5]: 0.12 ± 0.03
- Tumor/liver ratio [2, 5]: 2.2 ± 0.6
- Tumor/muscle ratio [2, 5]: 1.5 ± 0.7
- Percentage of Injected 111In Dose Per Gram (Tissue Wet Mass): Tumor ([2]; 4 Hours, Blocked: co-injection of folic acid dihydrate 4.1 ± 0.4 mg/kg, 0.4 mg/kg): 0.12±0.07 % ID/g
- Percentage of Injected 111In Dose Per Organ (Tissue): Muscle [2, 5]: 1.0 ± 0.7 Percentage of Injected 111In D
- Percentage of Injected 111In Dose Per Gram (Tissue Wet Mass): Blood [2, 6]: 0.035 ± 0.002 % ID/g
- Percentage of Injected 111In Dose Per Gram (Tissue Wet Mass): Heart [2, 6]: 1.2 ± 0.5 % ID/g
- Percentage of Injected 111In Dose Per Gram (Tissue Wet Mass): Kidney (one) [2, 6]: 105 ± 7 % ID/g
- Percentage of Injected 111In Dose Per Gram (Tissue Wet Mass): Liver & Gall Bladder [2, 6]: 1.2 ± 0.6 % ID/g
- Percentage of Injected 111In Dose Per Gram (Tissue Wet Mass): Lungs [2, 6]: 0.72 ± 0.21 % ID/g
- Percentage of Injected 111In Dose Per Gram (Tissue Wet Mass): Muscle [2, 6]: 1.9 ± 0.6 % ID/g
- Percentage of Injected 111In Dose Per Gram (Tissue Wet Mass): Spleen [2, 6]: 0.27 ± 0.08 % ID/g
- Percentage of Injected 111In Dose Per Gram (Tissue Wet Mass): Stomach, Intestines & Contents [2, 6]: 1.2 ± 0.2 % ID/g
- Percentage of Injected 111In Dose Per Gram (Tissue Wet Mass): Tumor [2, 6]: 3.6±0.6 % ID/g
- Percentage of Injected 111In Dose Per Organ (Tissue): Blood [2, 6]: 0.055 ± 0.002 Percentage of Injected 111In D
- Percentage of Injected 111In Dose Per Organ (Tissue): Heart [2, 6]: 0.18 ± 0.06 Percentage of Injected 111In D
- Percentage of Injected 111In Dose Per Organ (Tissue): Kidney (one) [2, 6]: 26.8 ± 2.7 Percentage of Injected 111In D
- Percentage of Injected 111In Dose Per Organ (Tissue): Liver & Gall Bladder [2, 6]: 1.7 ± 0.9 Percentage of Injected 111In D
- Percentage of Injected 111In Dose Per Organ (Tissue): Lungs [2, 6]: 0.34 ± 0.03 Percentage of Injected 111In D
- Percentage of Injected 111In Dose Per Organ (Tissue): Spleen [2, 6]: 0.055 ± 0.017 Percentage of Injected 111In D
- Percentage of Injected 111In Dose Per Organ (Tissue): Stomach, Intestines & Contents [2, 6]: 3.3 ± 0.6 Percentage of Injected 111In D
- Percentage of Injected 111In Dose Per Organ (Tissue): Tumor [2, 6]: 0.42 ± 0.4 Percentage of Injected 111In D
- Tumor/blood ratio [2, 6]: 105 ± 20
- Tumor/kidney ratio [2, 6]: 0.035 ± 0.008
- Tumor/liver ratio [2, 6]: 3.7 ± 1.4
- Tumor/muscle ratio [2, 6]: 2.0 ± 0.6
- Percentage of Injected 111In Dose Per Organ (Tissue): Muscle [2, 6]: 23.1 ± 7.0 Percentage of Injected 111In D
- primary whole-body clearance pathway ([2]; athymic mice, intravenous administration): Urinary excretion
